These results are taken from ChEMBL document CHEMBL1141370, “Biologically active triterpenoid saponins from Ardisia japonica” (J Nat Prod, 2007).

What all share (type): cell-based
In one experiment the test system is A549. Description: Cytotoxicity against human A549 cell line by MTT assay. Background: Tetrazolium assays rely on reduction of a dye to a coloured formazan, in cell work by metabolically active cells.
A further experiment relates to HL-60. Nature of the experiment: Cytotoxicity against human HL60 cell line by MTT assay.
A short description of experiment [1]: Cytotoxicity against human KATO3 cell line by MTT assay.

Turning to `C[C@@H]1O[C@@H](O[C@H]2[C@H](O[C@H]3CO[C@@H](O[C@H]4CC[C@]5(C)[C@H]6CC[C@]78OC[C@@]9(CC[C@](C)(C=O)C[C@H]97)[C@H](O)C[C@@]8(C)[C@]6(C)CC[C@H]5C4(C)C)[C@H](O)[C@H]3O)O[C@H](CO)[C@@H](O)[C@@H]2O)[C@H](O)[C@H](O)[C@H]1O` [CYCLAMIRETIN A], the half-inhibitory concentration (IC50) in the experiment with A549 was found to be 29.2 µM; in the experiment on HL-60 it was 18.1 µM; in experiment [1] it was 1.7 µM.
Turning to `COc1cc([C@@H]2c3cc4c(cc3[C@@H](O[C@@H]3O[C@@H]5CO[C@@H](C)O[C@H]5[C@H](O)[C@H]3O)[C@H]3COC(=O)[C@H]23)OCO4)cc(OC)c1O` [ETOPOSIDE], the IC50 in the experiment on A549 was found to be 20.9 µM; in the experiment on HL-60, 0.3 µM; in experiment [1], 0.1 µM.
For `CC1(C)[C@@H](O[C@@H]2OC[C@H](O[C@@H]3O[C@H](CO)[C@@H](O)[C@H](O)[C@H]3O[C@@H]3OC[C@@H](O)[C@H](O)[C@H]3O)[C@H](O)[C@H]2O)CC[C@]2(C)[C@H]3CC[C@]45OC[C@@]6(CC[C@](C)(C=O)C[C@H]64)[C@H](O)C[C@@]5(C)[C@]3(C)CC[C@@H]12` [PRIMULANIN] the same measures were 27.7 µM, 24.7 µM and 3.3 µM.

In general, IC50 refers to the concentration at which inhibition is half-maximal.
